Measured values: ChEMBL document CHEMBL4184243, “Optimization of antimalarial, and anticancer activities of (E)-methyl 2-(7-chloroquinolin-4-ylthio)-3-(4-hydroxyphenyl) acrylate” (Bioorg Med Chem, 2018)

Tests used:
[1] = Selectivity index, ratio of IC50 for human lymphocytes to IC50 for human Jurkat E6-1 cells; assay type: toxicity; details: human lymphocytes versus Jurkat E6-1 cells, read-out: Ratio IC50
[2] = Selectivity index, ratio of IC50 for human lymphocytes to IC50 for human HL60 cells; assay type: toxicity; details: human lymphocytes versus HL60 cells, read-out: Ratio IC50
[3] = Inhibition of beta-hematin formation assessed as reduction in acetate buffer-initiated hemozoin formation measured after 48 hrs; design: concentration or dose not given beside the values; details: concentration not given here
[4] = tested on: Plasmodium berghei; assay: Antimalarial activity against chloroquine-susceptible Plasmodium berghei ANKA infected in Balb-C mouse assessed as mean survival days at 10 mg/kg, ip administered once daily for 4 days (reference value: 8.4 +/- 0.15 day); assay type: functional
[5] = tested on: Jurkat E6.1; assay: Induction of apoptosis in human Jurkat E6-1 cells assessed as late apoptotic cells at 5 uM after 24 hrs by Annexin-V-FITC/propidium iodide staining based flow cytometric analysis (reference value: 0.73 +/- 0.14 %); assay type: functional
[6] = tested on: HL-60; assay: Induction of apoptosis in human HL60 cells assessed as necrotic cells at 5 uM after 24 hrs by Annexin-V-FITC/propidium iodide staining based flow cytometric analysis (reference value: 1.96 +/- 0.33 %); assay type: functional
[7] = Safety index, ratio of test compound IC50 to doxorubicin IC50 for human lymphocytes; assay type: ADME, cell-based, Lymphocyte; details: read-out: Ratio IC50
[8] = tested on: Lymphocyte; assay: Cytotoxicity against human lymphocytes after 24 to 48 hrs by MTT assay; assay type: cell-based
[9] = tested on: HL-60; assay: Cytotoxicity against human HL60 cells after 24 hrs by MTT assay; assay type: functional, cell-based; details: HL-60, 24 h
[10] = tested on: Jurkat E6.1; assay: Cytotoxicity against human Jurkat E6-1 cells after 24 hrs by MTT assay; assay type: functional, cell-based; details: Jurkat E6.1, 24 h
[11] = tested on: Mus musculus; assay: Toxicity in Balb-C mouse infected with chloroquine-susceptible Plasmodium berghei ANKA assessed as effect on body weight at 20 mg/kg, ip administered once daily for 4 days measured at 30 days post infection; assay type: organism-based; details: in vivo, 720 h
[12] = tested on: Mus musculus; assay: Toxicity in Balb-C mouse infected with chloroquine-susceptible Plasmodium berghei ANKA assessed as survival at 20 mg/kg, ip administered once daily for 4 days measured at 30 days post infection; assay type: organism-based; details: in vivo, 720 h
[13] = tested on: Plasmodium berghei; assay: Antimalarial activity against chloroquine-susceptible Plasmodium berghei ANKA infected in Balb-C mouse assessed as parasitemia at 10 mg/kg, ip administered once daily for 4 days measured post last dose by Giemsa staining based method (reference value: 65.8 +/- 4.38%); assay type: functional
[14] = tested on: Jurkat E6.1; assay: Induction of apoptosis in human Jurkat E6-1 cells assessed as early apoptotic cells at 5 uM after 24 hrs by Annexin-V-FITC/propidium iodide staining based flow cytometric analysis (reference value: 0.5 +/- 0.07 %); assay type: functional
[15] = tested on: HL-60; assay: Induction of apoptosis in human HL60 cells assessed as late apoptotic cells at 5 uM after 24 hrs by Annexin-V-FITC/propidium iodide staining based flow cytometric analysis (reference value: 0.85 +/- 0.13 %); assay type: functional
[16] = tested on: Jurkat E6.1; assay: Induction of apoptosis in human Jurkat E6-1 cells assessed as necrotic cells at 5 uM after 24 hrs by Annexin-V-FITC/propidium iodide staining based flow cytometric analysis (reference value: 1.26 +/- 0.24 %); assay type: functional
[17] = tested on: HL-60; assay: Induction of apoptosis in human HL60 cells assessed as early apoptotic cells at 5 uM after 24 hrs by Annexin-V-FITC/propidium iodide staining based flow cytometric analysis (reference value: 0.36 +/- 0.02 %); assay type: functional

COC(=O)/C(=C\c1ccc(OC(=O)c2ccc(OC)c(OC)c2OC)cc1)Sc1ccnc2cc(Cl)ccc12
selectivity ratio [1]: 9.27
selectivity ratio [2]: 10.8
inhibition [3]: 85.1%
MSD [4]: 29.83 days
Activity [5]: 4.12%
Activity [6]: 62.1%
selectivity ratio [7]: 5.1
IC50 [8]: 22.4 µM
IC50 [9]: 2080 nM
IC50 [10]: 2410 nM
Activity [11]: Non-Toxic
Activity [12]: Non-Toxic
Activity [13]: 1%
Activity [14]: 0.58%
Activity [15]: 7.38%
Activity [16]: 55.6%
Activity [17]: 0.75%
